{
  "source": "patent US11173133B2",
  "about": "“Zeaxanthin formulations with additional ocular-active nutrients, for protecting eye health and treating eye disorders” (ZeaVision LLC, priority 2003, dated 2021)",
  "key": {"sunburn": {"test_system": "sunburn", "experiment": "sunburn after controlled high-intensity UV exposure of small skin areas in human volunteers", "assay_type": "in vivo", "settings": "50 to 80 mg/day; small areas of skin exposed to medical-grade UV lamp", "procedure": "(§1) As mentioned above, the categories of pharmaceutical preparations and dietary (nutritional) supplements overlap, and there is no specific upper limit for dosages that would cause a dietary (nutritional) supplement to be reclassified as a pharmaceutical preparation. Safety data that was gathered on zeaxanthin, using high-dosage tests involving rats, indicated a “no adverse effect limit” (NOEL) level of at least 1200 mg/day. […] Accordingly, people who want tans, or who are planning to go on a vacation or other trip that will involve exposure to abnormally high levels of sunlight, may take large quantities of zeaxanthin (up to or even exceeding 100 mg/day), to help them avoid sunburn and obtain a deeper tanned color on their skin. Such use, even at very high quantities, would be regarded as taking a dietary supplement rather than a pharmaceutical, and such dosages would still remain far below the NOAEL levels that were determined by animal tests."}, "[1]": {"settings": "chemical / lab tests, cited from earlier work"}, "[2]": {"settings": "rats, high-dosage tests; Roche Vitamins 75-day Premarket Notification, FDA number 95S-0316; cited from earlier work"}, "[3]": {"experiment": "small-scale tests of high-dose zeaxanthin in human volunteers (safety, skin tone)", "assay_type": "in vivo", "settings": "dosages of 50 to 80 mg/day", "procedure": "as §1"}, "wet macular degeneration": {"test_system": "wet macular degeneration", "experiment": "laser treatment using verteporfin in a patient with wet macular degeneration taking zeaxanthin", "assay_type": "in vivo, human", "settings": "one patient, daily zeaxanthin capsules before and after treatment", "text": "As another example of the uncertainties and doubts that surround zeaxanthin among skilled physicians who treat eye diseases, the Inventor has personal knowledge of a patient who has the “wet” (or “exudative”) form of macular degeneration. This disease is characterized by aggressive growth of capillaries in and around certain layers of the retina, and it leads to rapid and devastating loss of vision. The best known treatment for wet AMD is called laser photocoagulation, or photodynamic therapy. It uses a drug called verteporfin, which is activated by a laser that is shone directly into the eyes of patients who have taken the drug. In October of 2003, a ZeaVision customer (a person) who was taking zeaxanthin capsules on a daily basis was scheduled to have a laser treatment using verteporfin, at the Wilmer Eye Institute in Baltimore, which is affiliated with the Johns Hopkins School of Medicine. This patient told their treating physician, who is one of the top experts in the world on treating macular degeneration, that they were taking zeaxanthin capsules on a daily basis. […] The results of that treatment, as measured up until the date this is being written, have been outstanding, and have been much better than was expected by the treating physician. […]"}, "[4]": {"settings": "naturally-occurring dextrorotatory stereoisomer; cited from earlier work"}, "macular degeneration [5]": {"test_system": "macular degeneration", "settings": "cited from earlier work"}, "macular degeneration [6]": {"test_system": "macular degeneration", "settings": "oral dosages; Newsome et al 1988 and others; cited from earlier work"}},
  "note": "Where two headings read alike, the source gives them in different places.",
  "data": [
    {"compound": "CC1=C(/C=C/C(C)=C/C=C/C(C)=C/C=C/C=C(C)/C=C/C=C(C)/C=C/C2=C(C)C[C@@H](O)CC2(C)C)C(C)(C)C[C@H](O)C1", "note": "[zeaxanthin]", "values": [
      {"measurement": "risk and severity of sunburn", "setting": "sunburn", "value": "effective in reducing a person's risk and severity of sunburn"},
      {"measurement": "potency in absorbing and quenching oxygen free radicals (anti-oxidant), versus lutein", "setting": "[1]", "value": "more potent and effective than lutein"},
      {"measurement": "potency in absorbing and quenching oxygen free radicals (anti-oxidant), versus lutein", "setting": "[1]; listed as Zeaxanthin", "value": "better and more potent anti-oxidant than lutein"},
      {"measurement": "\"no adverse effect limit\" (NOEL) level", "setting": "[2]", "value": "at least 1200 mg/day"},
      {"measurement": "safety in human volunteers", "setting": "[3]", "value": "entirely safe"},
      {"measurement": "results of laser-verteporfin treatment", "setting": "wet macular degeneration", "value": "outstanding"}
    ]},
    {"compound": "O=C(O)CCCC[C@@H]1CCSS1", "note": "(racemic) [lipoic acid]", "values": [
      {"measurement": "anti-oxidant activity versus S (levorotatory) isomers", "setting": "[4]", "value": "better anti-oxidant activity"}
    ]},
    {"compound": "[Zn]", "note": "[zinc]", "values": [
      {"measurement": "level of protection against macular degeneration", "setting": "macular degeneration [5]; AREDS-1, high dosages (zinc 80 mg/day), some but not all patient categories", "value": "low and weak level of protection"},
      {"measurement": "benefits of zinc in the AREDS-1 trial", "setting": "macular degeneration [5]; compared with the combination of vitamins A, C, and E", "value": "strong enough to roughly match the benefits provided by a combination of vitamins A, C, and E"},
      {"measurement": "results of oral zinc in macular degeneration and other ocular problems", "setting": "macular degeneration [6]", "value": "good, although not especially strong"}
    ]}
  ]
}
